Source: ChEMBL document CHEMBL4507295 (2021)

What was measured:
[1] = biological target: Mitogen-activated protein kinase 6 (Homo sapiens) (UniProt Q16659); details: Compound concentration 1000.0 nM
[2] = biological target: T1, Muscarinic acetylcholine receptor M5 (Homo sapiens) (UniProt P08912); details: Compound concentration 10.0 uM
T1 sequence (whole entry): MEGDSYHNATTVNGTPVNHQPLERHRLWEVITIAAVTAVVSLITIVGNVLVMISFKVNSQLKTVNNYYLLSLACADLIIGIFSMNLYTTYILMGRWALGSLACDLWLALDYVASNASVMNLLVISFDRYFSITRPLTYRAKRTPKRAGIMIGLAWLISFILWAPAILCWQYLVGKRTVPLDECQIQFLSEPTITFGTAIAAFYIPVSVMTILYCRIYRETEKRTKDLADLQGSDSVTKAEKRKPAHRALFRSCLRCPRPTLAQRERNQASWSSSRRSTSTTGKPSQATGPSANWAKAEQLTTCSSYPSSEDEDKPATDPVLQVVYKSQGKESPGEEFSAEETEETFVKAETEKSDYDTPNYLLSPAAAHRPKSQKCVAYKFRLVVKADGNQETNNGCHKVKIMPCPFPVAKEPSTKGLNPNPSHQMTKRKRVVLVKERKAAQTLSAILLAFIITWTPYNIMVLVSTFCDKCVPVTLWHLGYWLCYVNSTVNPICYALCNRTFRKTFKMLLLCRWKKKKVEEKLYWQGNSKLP

[3] = biological target: Mitogen-activated protein kinase kinase kinase 13 (Homo sapiens) (UniProt O43283); details: Compound concentration 1000.0 nM
[4] = biological target: Tyrosine-protein kinase JAK3 (Homo sapiens) (UniProt P52333); details: Compound concentration 1000.0 nM
[5] = biological target: Tyrosine-protein kinase Fyn (Homo sapiens) (UniProt P06241); details: Compound concentration 1000.0 nM
[6] = biological target: Leukocyte tyrosine kinase receptor (Homo sapiens) (UniProt P29376); details: Compound concentration 1000.0 nM
[7] = biological target: Cyclin-dependent kinase-like 5 (Homo sapiens) (UniProt O76039); details: Compound concentration 1000.0 nM
[8] = biological target: Serine/threonine-protein kinase 24 (Homo sapiens) (UniProt Q9Y6E0); details: Compound concentration 1000.0 nM
[9] = biological target: Wee1-like protein kinase (Homo sapiens) (UniProt P30291); details: Compound concentration 1000.0 nM
[10] = biological target: Mitogen-activated protein kinase kinase kinase 1 (Homo sapiens) (UniProt Q13233); details: Compound concentration 1000.0 nM
[11] = biological target: Cyclin-G-associated kinase (Homo sapiens) (UniProt O14976); details: Compound concentration 1000.0 nM
[12] = biological target: Ephrin type-A receptor 1 (Homo sapiens) (UniProt P21709); details: Compound concentration 1000.0 nM
[13] = biological target: Ribosomal protein S6 kinase alpha-4 (Homo sapiens) (UniProt O75676); details: Compound concentration 1000.0 nM
[14] = biological target: MAP/microtubule affinity-regulating kinase 3 (Homo sapiens) (UniProt P27448); details: Compound concentration 1000.0 nM
[15] = tested on: Receptor-type tyrosine-protein kinase FLT3 (Homo sapiens), P36888 [D835V]; details: Compound concentration 1000.0 nM
[16] = biological target: G protein-coupled receptor kinase 4 (Homo sapiens) (UniProt P32298); details: Compound concentration 1000.0 nM
[17] = biological target: Serine/threonine-protein kinase/endoribonuclease IRE1 (Homo sapiens) (UniProt O75460); details: Compound concentration 1000.0 nM
[18] = biological target: Receptor tyrosine-protein kinase erbB-4 (Homo sapiens) (UniProt Q15303); details: Compound concentration 1000.0 nM
[19] = biological target: MAP/microtubule affinity-regulating kinase 4 (Homo sapiens) (UniProt Q96L34); details: Compound concentration 1000.0 nM
[20] = biological target: Serine/threonine-protein kinase MAK (Homo sapiens) (UniProt P20794); details: Compound concentration 1000.0 nM
[21] = biological target: Death-associated protein kinase 2 (Homo sapiens) (UniProt Q9UIK4); details: Compound concentration 1000.0 nM
[22] = tested on: Tyrosine-protein kinase ABL1 (Homo sapiens), P00519 [H396P]; details: Compound concentration 1000.0 nM
[23] = biological target: G protein-coupled receptor kinase 3 (Homo sapiens) (UniProt P35626); details: Compound concentration 1000.0 nM
[24] = biological target: T2, D(4) dopamine receptor (Homo sapiens) (UniProt P21917); details: Compound concentration 10.0 uM
T2 sequence (whole entry): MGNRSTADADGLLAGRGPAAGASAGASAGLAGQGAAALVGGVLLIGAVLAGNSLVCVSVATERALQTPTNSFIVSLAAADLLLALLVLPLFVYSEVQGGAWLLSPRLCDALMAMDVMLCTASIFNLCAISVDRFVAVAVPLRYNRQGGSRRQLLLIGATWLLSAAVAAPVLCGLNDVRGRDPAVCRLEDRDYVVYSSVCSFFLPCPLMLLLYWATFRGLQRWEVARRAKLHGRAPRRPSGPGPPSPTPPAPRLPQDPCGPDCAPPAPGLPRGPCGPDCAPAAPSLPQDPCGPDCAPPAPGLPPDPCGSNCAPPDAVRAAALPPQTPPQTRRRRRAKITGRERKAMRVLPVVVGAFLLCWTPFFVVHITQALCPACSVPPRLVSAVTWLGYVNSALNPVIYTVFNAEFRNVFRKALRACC

[25] = biological target: T3, Muscarinic acetylcholine receptor M4 (Homo sapiens) (UniProt P08173); details: Compound concentration 10.0 uM
T3 sequence (whole entry): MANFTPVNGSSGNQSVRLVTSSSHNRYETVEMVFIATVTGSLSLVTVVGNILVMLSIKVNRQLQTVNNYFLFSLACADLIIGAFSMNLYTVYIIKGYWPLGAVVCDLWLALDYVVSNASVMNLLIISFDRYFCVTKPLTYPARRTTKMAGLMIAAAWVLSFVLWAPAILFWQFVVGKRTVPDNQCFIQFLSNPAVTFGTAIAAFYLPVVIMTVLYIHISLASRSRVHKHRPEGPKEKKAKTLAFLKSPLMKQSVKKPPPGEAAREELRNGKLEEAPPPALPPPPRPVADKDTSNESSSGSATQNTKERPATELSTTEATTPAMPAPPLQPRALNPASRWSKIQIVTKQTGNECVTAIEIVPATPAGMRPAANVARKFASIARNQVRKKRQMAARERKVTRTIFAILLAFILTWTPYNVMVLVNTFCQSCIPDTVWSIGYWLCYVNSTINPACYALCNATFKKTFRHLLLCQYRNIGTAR

[26] = tested on: Hepatocyte growth factor receptor (Homo sapiens), P08581 [M1250T]; details: Compound concentration 1000.0 nM

Chain of Mitogen-activated protein kinase 6 (Homo sapiens) (Q16659 whole entry): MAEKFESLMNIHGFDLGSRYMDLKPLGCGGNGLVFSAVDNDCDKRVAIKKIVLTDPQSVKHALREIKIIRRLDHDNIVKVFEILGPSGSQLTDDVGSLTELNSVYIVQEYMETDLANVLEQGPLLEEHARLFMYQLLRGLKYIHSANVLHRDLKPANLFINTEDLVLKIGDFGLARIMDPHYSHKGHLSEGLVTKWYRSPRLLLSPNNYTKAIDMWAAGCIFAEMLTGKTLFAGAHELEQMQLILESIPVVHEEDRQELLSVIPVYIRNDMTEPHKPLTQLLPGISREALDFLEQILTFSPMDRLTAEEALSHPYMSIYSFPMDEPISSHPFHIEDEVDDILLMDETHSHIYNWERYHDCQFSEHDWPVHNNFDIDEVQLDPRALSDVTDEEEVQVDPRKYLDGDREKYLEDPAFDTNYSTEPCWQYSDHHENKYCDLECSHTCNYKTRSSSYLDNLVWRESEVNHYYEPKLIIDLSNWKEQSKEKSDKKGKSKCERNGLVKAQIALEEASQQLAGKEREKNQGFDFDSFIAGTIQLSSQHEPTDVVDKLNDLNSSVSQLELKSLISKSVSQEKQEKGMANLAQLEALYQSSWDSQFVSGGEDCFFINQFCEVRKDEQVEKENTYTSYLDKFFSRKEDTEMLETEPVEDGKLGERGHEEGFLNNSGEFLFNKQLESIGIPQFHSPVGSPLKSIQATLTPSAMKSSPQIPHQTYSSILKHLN
Chain of Mitogen-activated protein kinase kinase kinase 13 (Homo sapiens) (O43283 whole entry): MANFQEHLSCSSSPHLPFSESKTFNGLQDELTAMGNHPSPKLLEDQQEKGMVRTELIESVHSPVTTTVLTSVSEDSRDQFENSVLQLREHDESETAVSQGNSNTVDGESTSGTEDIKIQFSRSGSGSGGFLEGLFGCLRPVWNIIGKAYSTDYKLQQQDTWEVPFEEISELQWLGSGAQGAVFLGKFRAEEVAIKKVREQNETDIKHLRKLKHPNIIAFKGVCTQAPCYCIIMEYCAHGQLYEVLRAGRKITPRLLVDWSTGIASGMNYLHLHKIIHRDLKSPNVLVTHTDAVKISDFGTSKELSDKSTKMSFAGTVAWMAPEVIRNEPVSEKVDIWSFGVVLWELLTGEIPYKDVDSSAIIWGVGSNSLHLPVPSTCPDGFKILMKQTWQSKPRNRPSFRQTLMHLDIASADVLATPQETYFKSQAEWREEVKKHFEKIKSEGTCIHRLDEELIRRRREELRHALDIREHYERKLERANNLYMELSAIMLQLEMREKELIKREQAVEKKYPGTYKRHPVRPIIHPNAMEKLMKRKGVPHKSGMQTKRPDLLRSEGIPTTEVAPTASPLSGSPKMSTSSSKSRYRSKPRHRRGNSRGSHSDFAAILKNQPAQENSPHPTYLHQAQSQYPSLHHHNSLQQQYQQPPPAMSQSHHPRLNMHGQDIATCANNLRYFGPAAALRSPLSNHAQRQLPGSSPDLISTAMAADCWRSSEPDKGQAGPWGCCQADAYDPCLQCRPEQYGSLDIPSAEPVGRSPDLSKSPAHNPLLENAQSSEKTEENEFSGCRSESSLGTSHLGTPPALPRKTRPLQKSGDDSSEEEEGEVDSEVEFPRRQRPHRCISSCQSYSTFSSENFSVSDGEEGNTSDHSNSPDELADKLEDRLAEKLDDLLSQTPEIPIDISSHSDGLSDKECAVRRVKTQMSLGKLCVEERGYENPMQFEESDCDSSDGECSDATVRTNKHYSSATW
Chain of Leukocyte tyrosine kinase receptor (Homo sapiens) (P29376 whole entry): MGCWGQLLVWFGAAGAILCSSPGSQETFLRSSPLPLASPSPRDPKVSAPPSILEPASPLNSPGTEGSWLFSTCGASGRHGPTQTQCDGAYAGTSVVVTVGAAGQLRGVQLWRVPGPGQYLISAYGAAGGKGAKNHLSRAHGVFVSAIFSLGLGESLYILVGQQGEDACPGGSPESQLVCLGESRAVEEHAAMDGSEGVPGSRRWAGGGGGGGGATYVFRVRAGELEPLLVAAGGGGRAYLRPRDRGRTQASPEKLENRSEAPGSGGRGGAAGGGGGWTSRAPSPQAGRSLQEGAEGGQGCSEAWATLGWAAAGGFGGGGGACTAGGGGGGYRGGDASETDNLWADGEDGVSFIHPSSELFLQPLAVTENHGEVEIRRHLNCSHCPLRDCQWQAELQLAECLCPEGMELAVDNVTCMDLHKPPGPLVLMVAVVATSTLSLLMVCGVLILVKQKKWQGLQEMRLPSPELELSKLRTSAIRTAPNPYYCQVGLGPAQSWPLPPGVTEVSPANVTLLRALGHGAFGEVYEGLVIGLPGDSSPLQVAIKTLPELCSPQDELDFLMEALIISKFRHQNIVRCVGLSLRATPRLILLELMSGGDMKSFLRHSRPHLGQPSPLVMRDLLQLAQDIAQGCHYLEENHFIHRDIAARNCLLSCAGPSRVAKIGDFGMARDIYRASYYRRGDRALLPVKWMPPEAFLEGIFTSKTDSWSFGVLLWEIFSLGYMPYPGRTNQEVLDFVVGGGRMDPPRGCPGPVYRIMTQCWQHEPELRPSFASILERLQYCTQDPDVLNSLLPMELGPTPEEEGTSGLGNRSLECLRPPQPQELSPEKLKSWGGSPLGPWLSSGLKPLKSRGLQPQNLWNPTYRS
Chain of MAP/microtubule affinity-regulating kinase 4 (Homo sapiens) (Q96L34 whole entry): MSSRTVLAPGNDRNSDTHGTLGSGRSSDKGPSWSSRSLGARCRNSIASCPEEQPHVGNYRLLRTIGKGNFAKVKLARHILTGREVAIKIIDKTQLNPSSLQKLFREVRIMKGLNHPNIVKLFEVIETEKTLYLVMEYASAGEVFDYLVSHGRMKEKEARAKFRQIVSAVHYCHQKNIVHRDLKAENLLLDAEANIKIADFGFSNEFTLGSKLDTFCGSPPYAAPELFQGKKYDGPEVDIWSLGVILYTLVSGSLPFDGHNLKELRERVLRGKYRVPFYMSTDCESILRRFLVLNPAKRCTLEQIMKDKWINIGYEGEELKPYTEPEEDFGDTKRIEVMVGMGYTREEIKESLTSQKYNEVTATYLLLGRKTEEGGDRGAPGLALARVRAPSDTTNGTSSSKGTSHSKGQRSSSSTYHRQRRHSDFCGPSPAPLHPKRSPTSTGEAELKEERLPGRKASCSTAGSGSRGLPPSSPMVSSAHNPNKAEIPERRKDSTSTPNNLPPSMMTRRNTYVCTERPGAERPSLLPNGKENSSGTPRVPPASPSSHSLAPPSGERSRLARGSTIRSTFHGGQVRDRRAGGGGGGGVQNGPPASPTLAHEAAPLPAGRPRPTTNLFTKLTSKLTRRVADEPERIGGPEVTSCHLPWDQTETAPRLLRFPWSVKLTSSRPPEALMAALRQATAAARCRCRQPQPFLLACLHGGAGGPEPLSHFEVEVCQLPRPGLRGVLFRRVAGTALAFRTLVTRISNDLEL
Chain of Cyclin-G-associated kinase (Homo sapiens) (O14976 whole entry): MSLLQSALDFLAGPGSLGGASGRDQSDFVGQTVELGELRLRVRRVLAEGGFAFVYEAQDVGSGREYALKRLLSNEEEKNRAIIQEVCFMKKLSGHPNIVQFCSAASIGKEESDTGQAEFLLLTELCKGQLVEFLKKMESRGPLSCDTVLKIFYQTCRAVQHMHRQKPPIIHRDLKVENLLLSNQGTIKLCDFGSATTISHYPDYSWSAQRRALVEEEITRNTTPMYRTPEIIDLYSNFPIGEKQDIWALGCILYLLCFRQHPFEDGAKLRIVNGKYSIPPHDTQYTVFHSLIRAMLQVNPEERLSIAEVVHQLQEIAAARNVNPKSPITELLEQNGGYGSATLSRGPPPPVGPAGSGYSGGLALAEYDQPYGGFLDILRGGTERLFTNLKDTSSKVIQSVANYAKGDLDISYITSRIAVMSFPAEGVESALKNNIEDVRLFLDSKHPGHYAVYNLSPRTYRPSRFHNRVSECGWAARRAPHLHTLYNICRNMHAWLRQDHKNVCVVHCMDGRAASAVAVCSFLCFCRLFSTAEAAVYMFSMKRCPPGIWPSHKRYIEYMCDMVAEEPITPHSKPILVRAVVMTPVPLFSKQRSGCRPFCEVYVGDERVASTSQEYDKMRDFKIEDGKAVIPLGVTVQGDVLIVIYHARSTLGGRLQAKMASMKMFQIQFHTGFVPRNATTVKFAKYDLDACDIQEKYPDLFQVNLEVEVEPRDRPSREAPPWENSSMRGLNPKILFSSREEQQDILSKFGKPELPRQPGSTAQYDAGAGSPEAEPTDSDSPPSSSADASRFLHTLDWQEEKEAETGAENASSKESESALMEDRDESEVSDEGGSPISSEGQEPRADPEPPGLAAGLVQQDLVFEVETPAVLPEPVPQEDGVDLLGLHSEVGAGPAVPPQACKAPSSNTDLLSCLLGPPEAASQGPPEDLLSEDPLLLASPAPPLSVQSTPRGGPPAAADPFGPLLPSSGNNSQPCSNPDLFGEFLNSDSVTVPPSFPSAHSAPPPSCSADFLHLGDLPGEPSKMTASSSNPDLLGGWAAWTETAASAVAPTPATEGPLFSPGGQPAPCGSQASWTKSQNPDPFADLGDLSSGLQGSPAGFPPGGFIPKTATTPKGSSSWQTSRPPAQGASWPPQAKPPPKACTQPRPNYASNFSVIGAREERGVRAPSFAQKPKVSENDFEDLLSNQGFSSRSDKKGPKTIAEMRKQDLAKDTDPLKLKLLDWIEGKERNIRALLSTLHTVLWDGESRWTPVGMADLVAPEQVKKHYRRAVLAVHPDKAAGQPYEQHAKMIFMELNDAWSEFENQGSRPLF
Chain of Serine/threonine-protein kinase 24 (Homo sapiens) (Q9Y6E0 whole entry, looked up): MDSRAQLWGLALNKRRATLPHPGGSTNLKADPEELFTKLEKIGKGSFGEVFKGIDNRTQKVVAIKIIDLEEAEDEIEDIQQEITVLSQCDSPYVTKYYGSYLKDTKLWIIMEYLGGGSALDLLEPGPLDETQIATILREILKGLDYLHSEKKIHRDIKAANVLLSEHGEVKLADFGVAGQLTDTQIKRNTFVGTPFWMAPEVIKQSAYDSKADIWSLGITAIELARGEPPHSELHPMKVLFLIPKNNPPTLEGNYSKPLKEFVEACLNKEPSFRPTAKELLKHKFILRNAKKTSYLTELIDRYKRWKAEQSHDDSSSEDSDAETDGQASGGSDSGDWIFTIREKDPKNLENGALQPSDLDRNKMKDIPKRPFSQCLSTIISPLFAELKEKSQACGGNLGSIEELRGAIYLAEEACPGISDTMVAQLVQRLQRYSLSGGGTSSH

N#CC1(c2ccccn2)CCN(Cc2cc(C(=O)O)c(=O)n3ccccc23)CC1 [MSD-M1PAM]
inactive: residual activity [1] 100% | inhibition [2] 4.74% | residual activity [3] 78% | residual activity [4] 95% | residual activity [5] 99% | residual activity [6] 100% | residual activity [7] 100% | residual activity [8] 100% | residual activity [9] 99% | residual activity [10] 98% | residual activity [11] 100% | residual activity [12] 100% | residual activity [13] 65% | residual activity [14] 100% | residual activity [15] 100% | residual activity [16] 68% | residual activity [17] 81% | residual activity [18] 72% | residual activity [19] 98% | residual activity [20] 97% | residual activity [21] 99% | residual activity [22] 80% | residual activity [23] 95% | inhibition [24] -8.33% | inhibition [25] -2.36% | residual activity [26] 96%

N#CC1(c2ccccn2)CCN(Cc2cc(C(=O)N3CCCC3)c(=O)n3ccccc23)CC1
inactive: residual activity [1] 79% | inhibition [2] 0.56% | residual activity [3] 100% | residual activity [4] 100% | residual activity [5] 83% | residual activity [6] 90% | residual activity [7] 100% | residual activity [8] 87% | residual activity [9] 74% | residual activity [10] 98% | residual activity [11] 100% | residual activity [12] 83% | residual activity [13] 100% | residual activity [14] 87% | residual activity [15] 98% | residual activity [16] 86% | residual activity [17] 100% | residual activity [18] 85% | residual activity [19] 90% | residual activity [20] 93% | residual activity [21] 94% | residual activity [22] 77% | residual activity [23] 77% | inhibition [24] -8.64% | inhibition [25] -8.87% | residual activity [26] 80%
